Experiments:
[1] = system: control sera (pooled serum of ten healthy LUMC hospital workers; commercial negative donor pooled serum from the Dutch bloodbank); assay type: binding, human; parameters: Binding of Control serum LUMC to linear peptides / Binding of Control serum Blood-bank to linear peptides / Binding of Control serum LUMC to looped peptides / Binding of Control Serum Blood-Bank to Looped peptides / Binding of Control serum LUMC to linear peptides of the protein M of SARS-CoV Urbani / Binding of Control serum Blood-bank to linear peptides of the protein M of SARS-CoV Urbani / Binding of Control serum LUMC to looped peptides of the protein M of SARS-CoV Urbani / Binding of Control Serum Blood-Bank to Looped peptides of the protein M of SARS-CoV Urbani: unit not given here
[2] = system: rabbit serum obtained by immunizing a rabbit with the SARS-CoV strain Frankfurt 1; assay type: binding; parameters: Binding of a rabbit serum to linear peptides / Binding of a rabbit serum to looped peptides / Rabbit serum linear peptides / Rabbit serum looped peptides / Binding of a rabbit serum to linear peptides of protein N of SARS-CoV Urbani (Rabbit serum linear peptides) / Binding of a rabbit serum to looped/cyclic peptides of protein N of SARS-CoV Urbani (Rabbit serum looped peptides): unit not given here
[3] = system: recombinant human anti-SARS-CoV antibody 03-018; assay type: binding; parameters: Binding of antibody 03-018 to linear peptides of the N protein of SARS-CoV Urbani / Binding of antibody 03-018 to looped/cyclic peptides of the N protein of SARS-CoV Urbani: unit not given here
[4] = system: antibodies in sera from SARS patients (sera 1a, 1b, 2, 6, 37, 62, London, SARS-yellow, SARS-green); assay type: binding, human; parameters: Binding of serum 6 to linear peptides of protein X1 of SARS-CoV Urbani / Binding of serum 37 to linear peptides of protein X1 of SARS-CoV Urbani / Binding of serum 6 to looped/cyclic peptide (PEPSCAN-ELISA) / Binding of serum 37 to looped/cyclic peptide (PEPSCAN-ELISA) / Binding of serum 37 to looped/cyclic peptides of protein X1 of SARS-CoV Urbani / Binding of serum 6 to linear peptides of protein X2 / Binding of serum 37 to linear peptides of protein X2 / Binding of serum 37 to looped/cyclic peptides of protein X2 of SARS-CoV Urbani / Binding of serum 6 to linear peptides of protein M of SARS-CoV Urbani / Binding of serum 37 to linear peptides of protein M of SARS-CoV Urbani / Binding of serum 6 to looped/cyclic peptides of protein M of SARS-CoV Urbani / Binding of serum 37 to looped/cyclic peptides of protein M of SARS-CoV Urbani / Binding of serum 6 to linear peptides of protein X3 of SARS-CoV Urbani / Binding of serum 37 to linear peptides of protein X3 of SARS-CoV Urbani / Binding of serum 37 to looped/cyclic peptides of protein X3 of SARS-CoV Urbani / Binding of serum 6 to linear peptides of protein X4 of SARS-CoV Urbani / Binding of serum 37 to linear peptides of protein X4 of SARS-CoV Urbani / Binding of serum 37 to looped/cyclic peptides of protein X4 of SARS-CoV Urbani / Binding of serum 6 to linear peptides of protein X5 of SARS-CoV Urbani / Binding of serum 37 to linear peptides of protein X5 of SARS-CoV Urbani / Binding of serum 37 to looped/cyclic peptides of protein X5 of SARS-CoV Urbani / Binding of serum 6 to linear peptides of protein N of SARS-CoV Urbani / Binding of serum 37 to linear peptides of protein N of SARS-CoV Urbani / Binding of serum 6 to linear peptide (PEPSCAN-ELISA) / Binding of serum 1a to looped/cyclic peptides of protein N of SARS-CoV Urbani / Binding of serum 1b to looped/cyclic peptides of protein N of SARS-CoV Urbani / Binding of serum 2 to looped/cyclic peptides of protein N of SARS-CoV Urbani / Binding of serum 6 to looped/cyclic peptides of protein N of SARS-CoV Urbani / Binding of serum 37 to looped/cyclic peptides of protein N of SARS-CoV Urbani / Binding of serum 62 to looped/cyclic peptides of protein N of SARS-CoV Urbani / Binding of serum London to looped/cyclic peptides of protein N of SARS-CoV Urbani / Binding of serum SARS-green to looped/cyclic peptides of protein N of SARS-CoV Urbani: unit not given here

With TDNNQNGGRNGARPK the “Binding of Control Serum Blood-Bank to Looped peptides” value [1] was 0.5, the “Binding of Control serum Blood-bank to linear peptides” value [1] was 0.9 and the “Binding of Control serum LUMC to linear peptides” value [1] was 0.8. The “Binding of Control serum LUMC to looped peptides” value [1] was 0.5, the “Binding of a rabbit serum to linear peptides of protein N of SARS-CoV Urbani (Rabbit serum linear peptides)” value [2] was 0.2 and the “Binding of a rabbit serum to looped/cyclic peptides of protein N of SARS-CoV Urbani (Rabbit serum looped peptides)” value [2] was 0.4. The “Binding of antibody 03-018 to linear peptides of the N protein of SARS-CoV Urbani” value [3] was 0.2, the “Binding of antibody 03-018 to looped/cyclic peptides of the N protein of SARS-CoV Urbani” value [3] was 0.2 and the “Binding of serum 1a to linear peptides of protein N of SARS-CoV Urbani” value [4] was 0.3. The “Binding of serum 1a to looped/cyclic peptides of protein N of SARS-CoV Urbani” value [4] was 0.2, the “Binding of serum 1b to linear peptides of protein N of SARS-CoV Urbani” value [4] was 0.2 and the “Binding of serum 1b to looped/cyclic peptides of protein N of SARS-CoV Urbani” value [4] was 0.1. The “Binding of serum 2 to linear peptides of protein N of SARS-CoV Urbani” value [4] was 0.4, the “Binding of serum 2 to looped/cyclic peptides of protein N of SARS-CoV Urbani” value [4] was 0.2 and the “Binding of serum 6 to linear peptides of protein N of SARS-CoV Urbani” value [4] was 0.2. For the same sequence, the “Binding of serum 6 to looped/cyclic peptides of protein N of SARS-CoV Urbani” value [4] was 0.2, the “Binding of serum 37 to linear peptides of protein N of SARS-CoV Urbani” value [4] was 0.8 and the “Binding of serum 37 to looped/cyclic peptides of protein N of SARS-CoV Urbani” value [4] was 0.4. For the same sequence, the “Binding of serum 62 to linear peptides of protein N of SARS-CoV Urbani” value [4] was 1.0, the “Binding of serum 62 to looped/cyclic peptides of protein N of SARS-CoV Urbani” value [4] was 0.2 and the “Binding of serum London to linear peptides of protein N of SARS-CoV Urbani” value [4] was 0.6. The “Binding of serum London to looped/cyclic peptides of protein N of SARS-CoV Urbani” value [4] was 0.3, the “Binding of serum SARS-green to linear peptides of protein N of SARS-CoV Urbani” value [4] was 0.8 and the “Binding of serum SARS-green to looped/cyclic peptides of protein N of SARS-CoV Urbani” value [4] was 0.1. The “Binding of serum SARS-yellow to linear peptides of protein N of SARS-CoV Urbani” value [4] was 0.7 and the “Binding of serum SARS-yellow to looped/cyclic peptides of protein N of SARS-CoV Urbani” value [4] was 0.3.

For TDYKHWPQIAQFAPS, the “Control Serum Blood-Bank Looped peptides” value [1] was 1.2, the “Control serum Blood-bank linear peptides” value [1] was 0.8 and the “Control serum LUMC linear peptides” value [1] was 0.8. The “Control serum LUMC looped peptides” value [1] was 1.1, the “Binding of a rabbit serum to linear peptides of protein N of SARS-CoV Urbani (Rabbit serum linear peptides)” value [2] was 0.2 and the “Binding of a rabbit serum to looped/cyclic peptides of protein N of SARS-CoV Urbani (Rabbit serum looped peptides)” value [2] was 0.5. For the same sequence, the “Binding of antibody 03-018 to linear peptides of the N protein of SARS-CoV Urbani” value [3] was 0.1, the “Binding of antibody 03-018 to looped/cyclic peptides of the N protein of SARS-CoV Urbani” value [3] was 0.2 and the “Binding of serum 1a to linear peptides of protein N of SARS-CoV Urbani” value [4] was 0.3. For the same sequence, the “Binding of serum 1a to looped/cyclic peptides of protein N of SARS-CoV Urbani” value [4] was 0.6, the “Binding of serum 1b to linear peptides of protein N of SARS-CoV Urbani” value [4] was 0.2 and the “Binding of serum 1b to looped/cyclic peptides of protein N of SARS-CoV Urbani” value [4] was 0.5. For the same sequence, the “Binding of serum 2 to linear peptides of protein N of SARS-CoV Urbani” value [4] was 0.2, the “Binding of serum 2 to looped/cyclic peptides of protein N of SARS-CoV Urbani” value [4] was 0.8 and the “Binding of serum 6 to linear peptides of protein N of SARS-CoV Urbani” value [4] was 0.2. The “Binding of serum 6 to looped/cyclic peptides of protein N of SARS-CoV Urbani” value [4] was 0.5, the “Binding of serum 37 to linear peptides of protein N of SARS-CoV Urbani” value [4] was 0.8 and the “Binding of serum 37 to looped/cyclic peptides of protein N of SARS-CoV Urbani” value [4] was 0.9. The “Binding of serum 62 to linear peptides of protein N of SARS-CoV Urbani” value [4] was 0.9, the “Binding of serum 62 to looped/cyclic peptides of protein N of SARS-CoV Urbani” value [4] was 1.3 and the “Binding of serum London to linear peptides of protein N of SARS-CoV Urbani” value [4] was 0.7. For the same sequence, the “Binding of serum London to looped/cyclic peptides of protein N of SARS-CoV Urbani” value [4] was 0.7, the “Binding of serum SARS-green to linear peptides of protein N of SARS-CoV Urbani” value [4] was 0.4 and the “Binding of serum SARS-green to looped/cyclic peptides of protein N of SARS-CoV Urbani” value [4] was 0.6. For the same sequence, the “Binding of serum SARS-yellow to linear peptides of protein N of SARS-CoV Urbani” value [4] was 0.7 and the “Binding of serum SARS-yellow to looped/cyclic peptides of protein N of SARS-CoV Urbani” value [4] was 0.9.

Reference: US20070128217A1 (priority 2003, published 2007)
